# Measurements published in patent US20260028326A1, “COMPOUND BASED ON ISOINDOLINE-SUBSTITUTED GLUTARIMIDE BACKBONE AND USE THEREOF” (GLUETACS THERAPEUTICS (SHANGHAI) CO., LTD., priority 2022, published 2026).
# How the values were obtained:
# Mino cells = assay: Tumor cell proliferation IC50 (CCK-8), Mino; conditions: Homo sapiens, 72 h, read-out: IC50 for inhibiting the proliferation of tumor cells, Mino;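 note: cell viability assessed with CCK-8 reagent after compound exposure, IC50 derived from plotted growth inhibition curves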
# Experimental: (§1) The tumor cells used herein were cultured in a cell culture medium listed in table A at 37° C. in an incubator with 5% CO2.
# (§2) After the cells were treated with the compounds of the present disclosure for a period of time, the cell viability detection reagent was added to the culture medium for cell viability assessment according to the instructions provided with the CCK-8 kit. […] The growth inhibition of the compounds of the present disclosure on cells was plotted by Prism Graphpad software, and the IC50 values of the compounds of the present disclosure were calculated therefrom.
# MDA-MB-231 cells = assay: Tumor cell proliferation IC50 (CCK-8), MDA-MB-231; conditions: Homo sapiens, MDA-MB-231, 96 h, read-out: IC50 for inhibiting the proliferation of tumor cells, MDA-MB-231
# Experimental: (§3) Prior to experimentation, all cells used were correctly identified by STR profiling, and tested negative for mycoplasma through routine screenings.
# as §2
# SU-DHL-6 cells = assay: Tumor cell proliferation IC50 (CCK-8), SU-DHL-6; conditions: Homo sapiens, SU-DHL-6, 72 h, read-out: IC50 for inhibiting the proliferation of tumor cells, SU-DHL-6
# Experimental: as §3, §2
# CCRF-CEM cells = assay: Tumor cell proliferation IC50 (CCK-8), CCRF-CEM; conditions: Homo sapiens, 96 h, read-out: IC50 for inhibiting the proliferation of tumor cells, CCRF-CEM;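 note: cell viability measured with CCK-8 reagent after compound treatment, IC50 taken from plotted growth inhibition curves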
# MM.1R cells = assay: Tumor cell proliferation IC50 (CCK-8), MM.1R; conditions: Homo sapiens, 72 h, read-out: IC50 for inhibiting the proliferation of tumor cells, MM.1R
# Experimental: as §1, §2
# GSPT1 protein = GSPT1 protein (Homo sapiens (Human), UniProt P15170+Q96SW2); assay: Western-blot assay of substrate protein degradation in hPBMC, GSPT1; format: cell-based
# GSPT1 protein, sequence (P15170 whole entry): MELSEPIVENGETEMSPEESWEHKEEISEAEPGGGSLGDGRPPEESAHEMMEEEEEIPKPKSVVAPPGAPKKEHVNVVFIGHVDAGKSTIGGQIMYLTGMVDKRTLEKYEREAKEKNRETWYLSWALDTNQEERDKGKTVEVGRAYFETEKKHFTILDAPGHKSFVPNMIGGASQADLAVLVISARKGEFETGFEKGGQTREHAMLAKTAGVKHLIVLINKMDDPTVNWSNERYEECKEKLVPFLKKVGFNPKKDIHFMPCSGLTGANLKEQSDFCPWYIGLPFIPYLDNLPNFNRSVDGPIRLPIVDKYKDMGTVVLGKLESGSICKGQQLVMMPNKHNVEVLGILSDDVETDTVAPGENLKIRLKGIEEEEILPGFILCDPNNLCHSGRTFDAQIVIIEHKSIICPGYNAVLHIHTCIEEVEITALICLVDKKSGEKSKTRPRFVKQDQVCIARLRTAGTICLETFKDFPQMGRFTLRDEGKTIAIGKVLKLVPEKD
# GSPT1 protein, sequence (Q96SW2 whole entry): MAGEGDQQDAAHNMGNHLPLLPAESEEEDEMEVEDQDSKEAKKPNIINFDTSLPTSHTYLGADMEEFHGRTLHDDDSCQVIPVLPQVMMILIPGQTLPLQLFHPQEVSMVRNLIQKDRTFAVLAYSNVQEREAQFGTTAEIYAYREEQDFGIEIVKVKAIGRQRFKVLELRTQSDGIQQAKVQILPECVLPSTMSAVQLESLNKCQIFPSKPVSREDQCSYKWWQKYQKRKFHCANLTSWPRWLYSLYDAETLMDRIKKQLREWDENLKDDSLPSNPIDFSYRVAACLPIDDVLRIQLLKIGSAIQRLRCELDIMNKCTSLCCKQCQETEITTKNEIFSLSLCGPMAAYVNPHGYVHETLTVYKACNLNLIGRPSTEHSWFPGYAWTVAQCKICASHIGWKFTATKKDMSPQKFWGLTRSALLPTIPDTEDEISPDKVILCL
# GSPT1 protein, sequence (Q16531 whole entry partner): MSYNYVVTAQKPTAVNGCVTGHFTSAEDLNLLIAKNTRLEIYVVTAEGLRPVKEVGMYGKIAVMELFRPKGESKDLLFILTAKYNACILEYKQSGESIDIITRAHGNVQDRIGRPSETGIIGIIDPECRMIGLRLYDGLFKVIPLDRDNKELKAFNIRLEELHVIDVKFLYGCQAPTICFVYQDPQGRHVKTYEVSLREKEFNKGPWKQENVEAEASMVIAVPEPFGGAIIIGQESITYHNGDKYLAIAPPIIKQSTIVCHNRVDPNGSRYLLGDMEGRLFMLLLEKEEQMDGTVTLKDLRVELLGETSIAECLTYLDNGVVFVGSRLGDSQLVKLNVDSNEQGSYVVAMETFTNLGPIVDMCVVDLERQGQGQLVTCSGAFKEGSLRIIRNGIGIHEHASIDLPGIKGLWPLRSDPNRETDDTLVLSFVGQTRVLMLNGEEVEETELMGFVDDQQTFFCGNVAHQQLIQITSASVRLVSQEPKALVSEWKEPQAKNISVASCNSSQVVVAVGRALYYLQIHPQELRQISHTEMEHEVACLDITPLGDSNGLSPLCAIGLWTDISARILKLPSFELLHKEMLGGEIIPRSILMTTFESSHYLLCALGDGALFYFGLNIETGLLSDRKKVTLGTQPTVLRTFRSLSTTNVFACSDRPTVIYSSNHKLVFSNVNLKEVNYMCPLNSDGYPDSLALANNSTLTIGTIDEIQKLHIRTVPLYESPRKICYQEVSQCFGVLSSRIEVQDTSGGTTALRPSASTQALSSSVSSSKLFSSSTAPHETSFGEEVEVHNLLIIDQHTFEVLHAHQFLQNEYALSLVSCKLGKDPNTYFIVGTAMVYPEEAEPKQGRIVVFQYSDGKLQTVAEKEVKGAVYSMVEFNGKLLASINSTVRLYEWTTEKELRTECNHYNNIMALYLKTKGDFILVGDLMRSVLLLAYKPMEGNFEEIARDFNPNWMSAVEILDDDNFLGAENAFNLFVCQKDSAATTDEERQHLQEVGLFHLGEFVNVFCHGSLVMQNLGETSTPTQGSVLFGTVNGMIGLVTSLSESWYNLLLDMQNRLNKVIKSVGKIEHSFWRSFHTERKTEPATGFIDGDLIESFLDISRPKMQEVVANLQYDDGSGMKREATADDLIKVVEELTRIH
# TMD8 cells = assay: Tumor cell proliferation IC50 (CCK-8), TMD8; conditions: Homo sapiens, TMD8, 72 h, read-out: IC50 for inhibiting the proliferation of tumor cells, TMD8
# Experimental: as §1, §2
# Kasumi-1 cells = assay: Tumor cell proliferation IC50 (CCK-8), Kasumi-1; conditions: Homo sapiens, Kasumi 1, 72 h, read-out: IC50 for inhibiting the proliferation of tumor cells, Kasumi-1
# Experimental: as §1, §2
# MM.1S cells = assay: Tumor cell proliferation IC50 (CCK-8), MM.1S; conditions: Homo sapiens, MM1.S, 72 h, read-out: IC50 for inhibiting the proliferation of tumor cells, MM.1S;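 note: viability of cultured cells read by CCK-8 reagent after compound exposure, growth inhibition curves fitted to derive IC50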
# MV-4-11 cells = assay: Tumor cell proliferation IC50 (CCK-8), MV-4-11; conditions: Homo sapiens, MV4-11, 96 h, read-out: IC50 for inhibiting the proliferation of tumor cells, MV-4-11
# Experimental: as §1, §2
# SW620 cells = assay: Tumor cell proliferation IC50 (CCK-8), SW620; conditions: Homo sapiens, SW-620, 96 h, read-out: IC50 for inhibiting the proliferation of tumor cells, SW620
# Experimental: as §1, §2
# Daudi cells = assay: Tumor cell proliferation IC50 (CCK-8), Daudi; conditions: Homo sapiens, read-out: IC50 for inhibiting the proliferation of tumor cells, Daudi;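 note: cell viability read with CCK-8 reagent after compound exposure of Daudi cells, IC50 derived from plotted growth inhibition curves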
# Ramos cells = assay: Tumor cell proliferation IC50 (CCK-8), Ramos; conditions: Homo sapiens, 72 h, read-out: IC50 for inhibiting the proliferation of tumor cells, Ramos
# Experimental: as §1, §2
# IKZF3 protein = IKZF3 protein (Homo sapiens (Human), UniProt Q96SW2+Q9UKT9); assay: Western-blot assay of substrate protein degradation in hPBMC, IKZF3; format: cell-based
# IKZF3 protein, sequence (Q9UKT9 whole entry): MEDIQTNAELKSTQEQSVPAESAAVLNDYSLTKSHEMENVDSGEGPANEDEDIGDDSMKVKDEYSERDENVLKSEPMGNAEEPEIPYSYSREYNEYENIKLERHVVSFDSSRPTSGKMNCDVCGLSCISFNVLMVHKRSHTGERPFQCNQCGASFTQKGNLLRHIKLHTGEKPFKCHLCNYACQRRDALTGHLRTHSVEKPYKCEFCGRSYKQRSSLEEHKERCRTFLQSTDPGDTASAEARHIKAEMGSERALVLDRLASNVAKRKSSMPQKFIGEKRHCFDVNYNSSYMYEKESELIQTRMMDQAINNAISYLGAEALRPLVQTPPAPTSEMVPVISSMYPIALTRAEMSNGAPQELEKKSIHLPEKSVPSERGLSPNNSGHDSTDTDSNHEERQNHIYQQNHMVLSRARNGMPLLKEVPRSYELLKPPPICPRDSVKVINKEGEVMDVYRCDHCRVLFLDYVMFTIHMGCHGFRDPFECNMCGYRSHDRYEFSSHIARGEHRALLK
# IKZF3 protein, sequence (Q96SW2 whole entry): as the sequence (Q96SW2 whole entry) above
# IKZF3 protein, sequence (Q16531 whole entry partner): as the sequence (Q16531 whole entry partner) above
# IKZF1 protein = IKZF1 protein (Homo sapiens (Human), UniProt Q13422+Q96SW2); assay: Western-blot assay of substrate protein degradation in hPBMC, IKZF1; format: cell-based
# IKZF1 protein, sequence (Q13422 whole entry): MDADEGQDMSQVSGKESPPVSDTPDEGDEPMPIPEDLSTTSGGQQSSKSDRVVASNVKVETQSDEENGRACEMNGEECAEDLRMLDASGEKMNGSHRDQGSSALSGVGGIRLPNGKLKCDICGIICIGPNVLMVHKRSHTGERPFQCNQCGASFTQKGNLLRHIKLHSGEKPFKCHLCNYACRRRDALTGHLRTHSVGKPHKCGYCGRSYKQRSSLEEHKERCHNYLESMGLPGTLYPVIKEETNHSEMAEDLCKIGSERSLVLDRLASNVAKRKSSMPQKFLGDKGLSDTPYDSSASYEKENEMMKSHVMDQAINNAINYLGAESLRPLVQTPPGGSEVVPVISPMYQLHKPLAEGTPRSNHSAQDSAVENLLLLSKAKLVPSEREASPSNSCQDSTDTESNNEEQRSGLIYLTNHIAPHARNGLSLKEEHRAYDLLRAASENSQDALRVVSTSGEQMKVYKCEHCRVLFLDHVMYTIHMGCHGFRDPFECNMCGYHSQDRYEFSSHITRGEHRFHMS
# IKZF1 protein, sequence (Q96SW2 whole entry): as the sequence (Q96SW2 whole entry) above
# IKZF1 protein, sequence (Q16531 whole entry partner): as the sequence (Q16531 whole entry partner) above
# SU-DHL-4 cells = assay: Tumor cell proliferation IC50 (CCK-8), SU-DHL-4; conditions: Homo sapiens, SU-DHL-4, 72 h, read-out: IC50 for inhibiting the proliferation of tumor cells, SU-DHL-4
# Experimental: as §3, §2
# [1] = Pharmacokinetic study, oral administration, mouse plasma; format: in vivo, mice; conditions: p.o. 30 mg/kg
# Experimental: The experimental animals used can be those commonly used in pharmacokinetic experiments, e.g., adult and healthy rodents (e.g., mice, rats (such as Sprague-Dawley (SD) rats), guinea pigs) or non-rodents (rabbits, dogs, and monkeys). In the present disclosure, mice were used as the experimental animals.
# The experimental animals were divided into two groups: a control group (for collecting blank plasma) and an orally administered group (dosed at 10 mg/kg or 30 mg/kg). Blood samples were collected at predetermined sampling time points after administration, such as 0.25 h, 0.5 h, 1 h, 2 h, 4 h, 8 h, and 24 h post-dosing. Blank plasma was collected from the control group.
# Plasma samples were preprocessed before analysis: 10 μL of 50% acetonitrile and 200 μL of internal standard solution (containing 50 ng/mL dexamethasone in acetonitrile) were added to 10 μL of plasma samples. For the blank control group, the same volume of acetonitrile was added instead of the internal standard. The processed samples were vortexed, centrifuged, and the supernatant was taken for LC-MS/MS injection analysis.
# After preparing standard curves and quality control (QC) samples, the concentrations of the compounds in the plasma samples were determined by LC-MS/MS analysis. Based on the plasma concentration data obtained from LC-MS/MS analysis, the pharmacokinetic parameters of the test compounds were calculated using the non-compartmental model in the pharmacokinetic calculation software WinNonlin v8.1.
# [2] = biological target: human Cereblon WT GST-tagged protein (Homo sapiens (Human), UniProt Q96SW2); assay: CRBN-binding affinity, HTRF (CEREBLON BINDING kit)
# human Cereblon WT GST-tagged protein, sequence (Q96SW2 whole entry): as the sequence (Q96SW2 whole entry) above
# Method in brief: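 GST-tagged human WT Cereblon incubated with compound, then Thalidomide-Re tracer and anti-GST Eu antibody added. Displacement read by HTRF, reported as CRBN binding inhibition rate against blank control wells without protein.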
# [3] = hPBMC cells, compound 500 nM, 24 hours, Western blot
IC50 (Mino cells) [µM],IC50 (MDA-MB-231 cells) [µM],IC50 (SU-DHL-6 cells) [µM],IC50 (CCRF-CEM cells) [µM],IC50 (MM.1R cells) [µM],IC50 (TMD8 cells) [µM],IC50 (Kasumi-1 cells) [µM],IC50 (MM.1S cells) [µM],IC50 (SW620 cells) [µM],IC50 (Ramos cells) [µM],IC50 (SU-DHL-4 cells) [µM],SMILES,other results
1 to 5,> 10,> 10,> 10,> 10,0.5 to 1,> 10,0.1 to 0.5,> 10,1 to 5,> 10,"Nc1cccc2c1C(=O)N(C1CCC(=O)NC1=O)C2=O (centres unmarked) [pomalidomide, reference compound]","degradation of GSPT1 protein (Western blot, FIG. 1) (GSPT1 protein; hPBMC, 24 h, 50 nM): cannot degrade; IC50 (MV-4-11 cells): > 10 µM; IC50 (Daudi cells): 5 to 10 µM; degradation of IKZF3 protein (Western blot, FIG. 1) (IKZF3 protein; hPBMC, 24 h, 50 nM): cannot degrade; degradation of IKZF1 protein (Western blot, FIG. 1) (IKZF1 protein; hPBMC, 24 h, 50 nM): cannot degrade"
< 0.005,< 0.005,0.01 to 0.05,< 0.005,< 0.005,< 0.005,< 0.005,< 0.005,0.005 to 0.01,0.005 to 0.01,0.1 to 0.5,"O=C1CCC(N2Cc3cc(CN4CCN(Cc5ccccc5-c5ccc(Cl)cc5)CC4)ccc3C2=O)C(=O)N1 (centres unmarked) [GT-03355, 3-(5-((4-((4′-chloro-[1,1′-biphenyl]-2-yl)methyl)piperazin-1-yl)methyl)-1-oxoisoindolin-2-yl)piperidine-2,6-dione]","residual substrate protein level, GSPT1 (GSPT1 protein; [3]): A (A represents a residual substrate protein level of <50%); AUC(0-t) [1]: > 0.5 µg·h/mL; IC50 [2]: 0.77 µM; residual substrate protein level, IKZF3 (IKZF3 protein; [3]): A (A represents a residual substrate protein level of <50%); residual substrate protein level, IKZF1 (IKZF1 protein; [3]): A (A represents a residual substrate protein level of <50%)"
